The record followed here is patent US10981908B2, “Aryl hydrocarbon receptor (AHR) modulator compounds” (PHENEX PHARMACEUTICALS AG, priority 2017, dated 2021).

In the assay the target is T1, AhR (Homo sapiens, UniProt P35869).
T1 construct: The HepG2 CYP1A1-Luc cells do express basal luciferase activity that can be increased via potent AhR agonists or decreased via potent AhR antagonists; endogenous in cells
T1 sequence (P35869 11-848): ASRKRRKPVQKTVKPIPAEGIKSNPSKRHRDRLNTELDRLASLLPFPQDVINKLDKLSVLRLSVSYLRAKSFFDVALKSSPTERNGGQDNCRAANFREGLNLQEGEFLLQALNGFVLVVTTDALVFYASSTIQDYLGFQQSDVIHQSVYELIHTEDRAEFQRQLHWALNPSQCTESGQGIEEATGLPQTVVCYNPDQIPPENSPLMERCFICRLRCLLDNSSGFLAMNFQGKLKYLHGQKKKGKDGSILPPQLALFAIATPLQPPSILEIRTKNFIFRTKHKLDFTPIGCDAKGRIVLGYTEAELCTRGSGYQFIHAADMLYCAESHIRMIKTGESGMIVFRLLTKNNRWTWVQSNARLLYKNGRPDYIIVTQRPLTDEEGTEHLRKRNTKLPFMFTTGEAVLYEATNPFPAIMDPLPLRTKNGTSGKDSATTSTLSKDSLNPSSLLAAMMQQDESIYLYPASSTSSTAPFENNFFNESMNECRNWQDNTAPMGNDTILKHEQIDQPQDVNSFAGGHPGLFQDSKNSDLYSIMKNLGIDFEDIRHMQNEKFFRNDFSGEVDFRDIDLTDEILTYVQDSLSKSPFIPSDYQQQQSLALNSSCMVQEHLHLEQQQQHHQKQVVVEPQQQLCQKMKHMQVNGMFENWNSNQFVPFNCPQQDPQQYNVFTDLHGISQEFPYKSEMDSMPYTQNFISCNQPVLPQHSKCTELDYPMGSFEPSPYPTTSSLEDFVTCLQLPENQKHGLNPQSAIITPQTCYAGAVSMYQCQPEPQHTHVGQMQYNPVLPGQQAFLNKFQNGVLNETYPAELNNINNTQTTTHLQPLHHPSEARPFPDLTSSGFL
Kind of assay: AhR direct luciferase reporter assay in HepG2 cells (HepG2 CYP1A1-LUC). Format: cell-based. The note with it: luciferase activity after 18 hours, medium with no exogenous AhR agonist or 10 nM VAF347, read-out: AhR potency (AhR antagonistic potency, IC50 class). The source says: AhR Direct Luciferase Reporter Assay in HepG2 Cells
A stable cell line (HepG2 CYP1A1-LUC) was used in which part of the promoter region of the human CYP1A1 gene is stably integrated into the genome of human HepG2 hepatocytes (DSZM #ACC 180) in front of a Photinus pyralis Firefly Luciferase gene. A 1210 bp fragment comprising part of the human CYP1A1 promoter was isolated via SacI and BgIII restriction digestion from Lightswitch Clone S714555 (SwitchGearGenomics) and inserted between the SacI and BgIII sites in pGL4.30 (Promega #E8481) in front of the Firefly Luciferase gene. The resulting vector was linearized with NotI, transfected into HepG2 cells (DSMZ #ACC 180) and stably transfected clones selected with 250 μg/ml Hygromycin B. After repetitive rounds of subcloning and testing for robustly regulated luciferase activity after AhR agonist stimulation, a stable clonal HepG2 CYP1A1-Luc cell line was selected.
The HepG2 CYP1A1-Luc cells do express basal luciferase activity that can be increased via potent AhR agonists or decreased via potent AhR antagonists, added to the growth medium of the cells.
In typical reporter assays performed with this cell line, cells are grown in 96-well plates and AhR modulators are titrated into the growth medium in serial dilutions in RPMI-1640 Medium (Sigma #R7509) supplemented with 8,6% fetal calf serum (Sigma #F7524) and containing either no exogenous AhR agonist or 10 nM of the potent AhR agonist VAF347 (Calbiochem #182690). Cells are further cultivated for 18 hours and luciferase activities are determined from extracts of cells in buffers containing D-Luciferine and ATvP using a LUMIstar Optima microplate Luminometer from BMG Labtech.
(In general: In a reporter assay the amount or activity of a reporter protein is the signal.)

Some results are limits rather than exact numbers.

In general, IC50 refers to the concentration needed to halve the response being measured. For `Cn1ncnc1C(=O)Nc1ccc2cc(-c3ccccc3S(C)(=O)=O)[nH]c2n1` [Example 1/23, 1-Methyl-N-(2-(2-(methylsulfonyl)phenyl)-1H-pyrrolo[2,3-b]pyridin-6-yl)-1H-1,2,4-triazole-5-carboxamide], the IC50 was above 1000 nM. As for `Cn1ncnc1C(=O)Nc1ccc2cc(-c3ccc(C(F)F)cc3)[nH]c2n1` [Example 1/25, N-(2-(4-(Difluoromethyl)phenyl)-1H-pyrrolo[2,3-b]pyridin-6-yl)-1-methyl-1H-1,2,4-triazole-5-carboxamide], the IC50 is below 100 nM. As for `Cn1ncnc1C(=O)Nc1ccc2cc(-c3cc(Cl)ccc3C(F)(F)F)[nH]c2n1` [Example 1/26, N-(2-(5-Chloro-2-(trifluoromethyl)phenyl)-1H-pyrrolo[2,3-b]pyridin-6-yl)-1-methyl-11H-1,2,4-triazole-5-carboxamide], the IC50 was below 100 nM. For the compound `Cn1ncnc1C(=O)Nc1ccc2cc(-c3cc(C4CC4)ccc3C(F)(F)F)[nH]c2n1` [Example 1/27, N-(2-(5-Cyclopropyl-2-(trifluoromethyl)phenyl)-1H-pyrrolo[2,3-b]pyridin-6-yl)-1-methyl-1H-1,2,4-triazole-5-carboxamide], the IC50 is below 100 nM. In the case of `Cn1ncnc1C(=O)Nc1ccc2cc(-c3cc(F)c(F)cc3C(F)F)[nH]c2n1` [Example 1/28, N-(2-(2-(Difluoromethyl)-4,5-difluorophenyl)-1H-pyrrolo[2,3-b]pyridin-6-yl)-1-methyl-1H-1,2,4-triazole-5-carboxamide], the IC50 was below 100 nM. As for `CCc1ccc(C(F)(F)F)c(-c2cc3ccc(NC(=O)c4ncnn4C)nc3[nH]2)c1` [Example 1/29, N-(2-(5-Ethyl-2-(trifluoromethyl)phenyl)-1H-pyrrolo[2,3-b]pyridin-6-yl)-1-methyl-1H-1,2,4-triazole-5-carboxamide], the IC50 is below 100 nM. On to `Cn1ncnc1C(=O)Nc1ccc2cc(-c3cc(C(F)(F)F)ccc3C(F)(F)F)[nH]c2n1` [Example 1/30, N-(2-(2,5-Bis(trifluoromethyl)phenyl)-1H-pyrrolo[2,3-b]pyridin-6-yl)-1-methyl-1H-1,2,4-triazole-5-carboxamide], for which the IC50 was below 100 nM. Consider `Cc1cc2cc(-c3ccccc3C(F)(F)F)[nH]c2nc1NC(=O)c1ncnn1C` [Example 1/31, 1-Methyl-N-(5-methyl-2-(2-(trifluoromethyl)phenyl)-1H-pyrrolo[2,3-b]pyridin-6-yl)-1H-1,2,4-triazole-5-carboxamide], for which the IC50 lay within 100 to 1000 nM. Under `Cn1ncnc1C(=O)Nc1ccc2cc(-c3ccoc3C(F)F)[nH]c2n1` [Example 1/32, N-(2-(2-(Difluoromethyl)furan-3-yl)-1H-pyrrolo[2,3-b]pyridin-6-yl)-1-methyl-1H-1,2,4-triazole-5-carboxamide] stands below 100 nM; under `Cc1ccc(C(F)(F)F)c(-c2cc3ccc(NC(=O)c4ncnn4C)nc3[nH]2)c1` [Example 1/33, 1-Methyl-N-(2-(5-methyl-2-(trifluoromethyl)phenyl)-1H-pyrrolo[2,3-b]pyridin-6-yl)-1H-1,2,4-triazole-5-carboxamide], below 100 nM; under `Cn1ncnc1C(=O)Nc1ccc2cc(-c3cc(Cl)ccc3C(F)F)[nH]c2n1` [Example 1/34, N-(2-(5-Chloro-2-(difluoromethyl)phenyl)-1H-pyrrolo[2,3-b]pyridin-6-yl)-1-methyl-1H-1,2,4-triazole-5-carboxamide], below 100 nM.

Turning to `Cc1ccc(C(F)F)c(-c2cc3ccc(NC(=O)c4ncnn4C)nc3[nH]2)c1` [Example 1/35, N-(2-(2-(Difluoromethyl)-5-methylphenyl)-1H-pyrrolo[2,3-b]pyridin-6-yl)-1-methyl-1H-1,2,4-triazole-5-carboxamide], the IC50 is below 100 nM. Next, `Cn1nc(C(N)=O)cc1C(=O)Nc1ccc2cc(-c3ccccc3C(F)(F)F)[nH]c2n1` [Example 2, 1-Methyl-n^5-(2-(2-(trifluoromethyl)phenyl)-1H-pyrrolo[2,3-b]pyridin-6-yl)-1H-pyrazole-3,5-dicarboxamide]: 100 to 1000 nM; `Cn1ncnc1C(=O)Nc1ccc2cc(-c3ccccc3C(F)(F)F)n(C)c2n1` [Example 3, 1-Methyl-N-(1-methyl-2-(2-(trifluoromethyl)phenyl)-1H-pyrrolo[2,3-b]pyridin-6-yl)-1H-1,2,4-triazole-5-carboxamide]: 100 to 1000 nM. Turning to `Cn1ncnc1C(=O)Nc1ccc2cc(-c3ccccc3C3CC3)[nH]c2n1` [Example 4, N-(2-(2-Cyclopropylphenyl)-1H-pyrrolo[2,3-b]pyridin-6-yl)-1-methyl-1H-1,2,4-triazole-5-carboxamide], the IC50 is below 100 nM.

For the compound `Cn1ncnc1C(=O)Nc1ccc2cc(-c3cc(F)ccc3C(F)F)[nH]c2n1` [Example 4/9, N-(2-(2-(difluoromethyl)-5-fluorophenyl)-1H-pyrrolo[2,3-b]pyridin-6-yl)-1-methyl-1H-1,2,4-triazole-5-carboxamide], the IC50 was below 100 nM. Take `Cn1cncc1C(=O)Nc1ccc2cc(-c3ccccc3C(F)F)[nH]c2n1` [Example 5, N-(2-(2-(Difluoromethyl)phenyl)-1H-pyrrolo[2,3-b]pyridin-6-yl)-1-methyl-1H-imidazole-5-carboxamide]: the IC50 was 100 to 1000 nM. In the case of `Cn1ncnc1C(=O)Nc1ccc2cc(-c3ccccc3C(=O)O)[nH]c2n1` [Example 6, 2-(6-(1-Methyl-1H-1,2,4-triazole-5-carboxamido)-1H-pyrrolo[2,3-b]pyridin-2-yl)benzoic acid], the IC50 is above 1000 nM.

For `Cn1ncnc1C(=O)Nc1ccc2cc(-c3ccccc3C(N)=O)[nH]c2n1` [Example 7, N-(2-(2-Carbamoylphenyl)-1H-pyrrolo[2,3-b]pyridin-6-yl)-1-methyl-1H-1,2,4-triazole-5-carboxamide], the IC50 fell in the range of 100 to 1000 nM. For the compound `CN(C)C(=O)c1ccccc1-c1cc2ccc(NC(=O)c3ncnn3C)nc2[nH]1` [Example 8, N-(2-(2-(Dimethylcarbamoyl)phenyl)-1H-pyrrolo[2,3-b]pyridin-6-yl)-1-methyl-1H-1,2,4-triazole-5-carboxamide], the IC50 was above 1000 nM. On to `Cn1ncnc1C(=O)Nc1ccc2cc(-c3ccc(C(=O)O)cc3)[nH]c2n1` [Example 12/1, 4-(6-(1-Methyl-1H-1,2,4-triazole-5-carboxamido)-1H-pyrrolo[2,3-b]pyridin-2-yl)benzoic Acid], for which the IC50 is above 1000 nM. For the compound `Cn1ncnc1C(=O)Nc1ccc2c(C#N)c(-c3ccccc3C(F)F)[nH]c2n1` [Example 14, N-(3-Cyano-2-(2-(difluoromethyl)phenyl)-1H-pyrrolo[2,3-b]pyridin-6-yl)-1-methyl-1H-1,2,4-triazole-5-carboxamide], the IC50 is below 100 nM.
